Experimental data published in the supplement of paper PMC11061612.

Legend:
Experiment in all cases: Bliss excess, mean over the matrix (fraction); higher = more synergy
[1] = system: AMO-1 (Plasma Cell Myeloma)
How it was run: (§1)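 Cell lines grown in DMEM/F12 or RPMI with 10% FBS were plated in 1536-well plates and held 24 hours at 37°C, 5% CO2 before 72 hours of exposure to two-drug dose matrices, with DMSO typically at 0.2%. CellTiter-Glo 2.0 luminescence gave viability, which was converted to inhibition. Vehicle wells were set to 0 and blank wells to 1. Combination Emax is the second-highest inhibition in the matrix, and Bliss excess is the observed combination effect minus the expected EA + EB − EA·EB, where EA and EB are the single-agent effects.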

[2] = system: Ca9-22 (Head and Neck Carcinoma)
How it was run: as §1

[3] = system: Caov-4 (Ovarian Carcinoma)
How it was run: as §1

[4] = system: D-263MG (Glioblastoma)
How it was run: as §1

[5] = system: EFM-19 (Breast Carcinoma)
How it was run: as §1

[6] = system: HGC-27 (Gastric Carcinoma)
How it was run: as §1

[7] = system: HOP-62 (Lung Adenocarcinoma)
How it was run: as §1

[8] = system: Hs-766T (Pancreatic Carcinoma)
How it was run: as §1

[9] = system: NB69 (Neuroblastoma)
How it was run: as §1

[10] = system: NCI-H1915 (Non-Small Cell Lung Carcinoma)
How it was run: as §1

[11] = system: NCI-H358 (Lung Adenocarcinoma)
How it was run: as §1

[12] = system: NCI-H727 (Other Solid Carcinomas)
How it was run: as §1

[13] = system: NEC8 (Other Solid Carcinomas)
How it was run: as §1

[14] = system: NUGC-3 (Gastric Carcinoma)
How it was run: as §1

[15] = system: OSC-20 (Oral Cavity Carcinoma)
How it was run: as §1

[16] = system: RF-48 (B-Cell Non-Hodgkin's Lymphoma)
How it was run: as §1

[17] = system: SU8686 (Pancreatic Carcinoma)
How it was run: as §1

[18] = system: SW13 (Other Solid Carcinomas)
How it was run: as §1

[19] = system: TGW (Neuroblastoma)
How it was run: as §1

[20] = system: YH-13 (Glioblastoma)
How it was run: as §1

SMILES	Bliss excess [1]	Bliss excess [2]	Bliss excess [3]	Bliss excess [4]	Bliss excess [5]	Bliss excess [6]	Bliss excess [7]	Bliss excess [8]	Bliss excess [9]	Bliss excess [10]	Bliss excess [11]	Bliss excess [12]	Bliss excess [13]	Bliss excess [14]	Bliss excess [15]	Bliss excess [16]	Bliss excess [17]	Bliss excess [18]	Bliss excess [19]	Bliss excess [20]
C=CCn1c(=O)c2cnc(Nc3ccc(N4CCN(C)CC4)cc3)nc2n1-c1cccc(C(C)(C)O)n1 [AZD1775] + O=C(c1cc(Cc2n[nH]c(=O)c3ccccc23)ccc1F)N1CCN(C(=O)C2CC2)CC1 [Olaparib] (first compound max 1 µM, partner max 10 µM)	-0.0631	-0.0664	-0.0343	-0.0366	-0.0456	0.0224	-0.0381	0.0002	0.0619	-0.0223	-0.0184	-0.0055	0.0029	-0.0798	-0.0205	0.0129	-0.0399	-0.0137	-0.0383	-0.0513
CC1(C)CCC(CN2CCN(c3ccc(C(=O)NS(=O)(=O)c4ccc(NCC5CCOCC5)c([N+](=O)[O-])c4)c(Oc4cnc5[nH]ccc5c4)c3)CC2)=C(c2ccc(Cl)cc2)C1 [Venetoclax] + CCN(CCO)CCCOc1ccc2c(Nc3cc(CC(=O)Nc4cccc(F)c4)[nH]n3)ncnc2c1 [AZD2811] (first compound max 1 µM, 7x7, partner max 1 µM)	0.0249	0.0079	-0.0091	0.0431	0.0005	0.0075	-0.0222	-0.0372	0.0179	0.0163	-0.0315	-0.0795	-0.007	0.0083	-0.0372	0.0498	-0.0364	0.0311	-0.011	-0.0428
CN(C)CCCOc1ccc(-c2ccc3ncc4c(c3c2)n(C2CCOCC2)c(=O)n4C)cn1 [AZD0156] + C=CCn1c(=O)c2cnc(Nc3ccc(N4CCN(C)CC4)cc3)nc2n1-c1cccc(C(C)(C)O)n1 [AZD1775] (first compound max 1 µM, partner max 1 µM)	0.011	-0.0042	0.0155	-0.039	-0.0295	0.0088	-0.0403	-0.0232	-0.0337	-0.0572	0.0011	-0.095	0.0183	-0.0369	-0.0443	-0.0093	-0.0231	-0.0449	-0.0051	-0.0238
C=CCn1c(=O)c2cnc(Nc3ccc(N4CCN(C)CC4)cc3)nc2n1-c1cccc(C(C)(C)O)n1 [AZD1775] + C1CN(CCC1(C(=O)N[C@@H](CCO)C2=CC=C(C=C2)Cl)N)C3=NC=NC4=C3C=CN4 [Capivasertib] (first compound max 3 µM, partner max 3 µM)	0.0002	-0.0236	-0.0398	-0.0143	-0.0443	0.0785	-0.0872	-0.0513	-0.0304	0.0032	-0.0375	-0.0584	0.013	0.0143	-0.0196	-0.0989	-0.0619	-0.016	-0.0542	-0.0309
CN(CCO)CC[C@H](CSc1ccccc1)Nc1ccc(S(=O)(=O)NC(=O)c2ccc(N3CCC([C@@H](O)c4ccccc4-c4ccc(Cl)cc4)CC3)cc2)cc1S(=O)(=O)C(F)(F)F [AZD4320] + CN(C)CCCOc1ccc(-c2ccc3ncc4c(c3c2)n(C2CCOCC2)c(=O)n4C)cn1 [AZD0156] (first compound max 1 µM, 7x7, partner max 1 µM)	-0.0217	-0.0338	-0.0319	-0.0256	-0.0491	-0.064	-0.0619	-0.087	-0.12	0.0196	-0.0101	-0.0606	-0.0167	-0.0477	-0.0595	-0.0469	-0.0404	-0.019	-0.0068	-0.0489
Cc1c2c(nn1C)CSCc1cc(n(C)n1)CSc1cc(c3ccccc3c1)OCCCc1c(C(=O)O)n(C)c3c-2c(Cl)ccc13 [AZD5991] + CC1(C)CCC(CN2CCN(c3ccc(C(=O)NS(=O)(=O)c4ccc(NCC5CCOCC5)c([N+](=O)[O-])c4)c(Oc4cnc5[nH]ccc5c4)c3)CC2)=C(c2ccc(Cl)cc2)C1 [Venetoclax] (first compound max 1 µM, 7x7, partner max 1 µM)	0.0456	-0.006	-0.0137	-0.0036	0.0055	0.1	-0.0574	-0.132	0.136	-0.0211	-0.0289	-0.012	0.0396	-0.0125	-0.0059	0.12	-0.0391	0.0016	0.128	-0.0433
CC1(C)CCC(CN2CCN(c3ccc(C(=O)NS(=O)(=O)c4ccc(NCC5CCOCC5)c([N+](=O)[O-])c4)c(Oc4cnc5[nH]ccc5c4)c3)CC2)=C(c2ccc(Cl)cc2)C1 [Venetoclax] + C[C@@H]1COCCN1C2=NC(=NC(=C2)C3(CC3)[S@](=N)(=O)C)C4=C5C=CNC5=NC=C4 [AZD6738] (first compound max 1 µM, 7x7, partner max 10 µM)	-0.0355	-0.0019	-0.0228	0.0199	-0.0814	-0.0099	-0.0649	-0.0596	0.0496	-0.0084	-0.0224	-0.0801	-0.0293	-0.035	-0.0599	-0.0039	-0.0285	0.0075	-0.0202	-0.0325
NC1(C(=O)N[C@@H](CCO)c2ccc(Cl)cc2)CCN(c2ncnc3[nH]ccc23)CC1 [Capivasertib] + C[C@@H]1COCCN1C2=NC(=NC(=C2)C3(CC3)[S@](=N)(=O)C)C4=C5C=CNC5=NC=C4 [AZD6738] (first compound max 10 µM, 7x7, partner max 10 µM)	-0.021	-0.0386	-0.0249	-0.0685	-0.0072	-0.0182	-0.0695	-0.02	-0.0728	-0.081	-0.0896	-0.0734	0.0288	-0.0639	-0.0194	-0.0888	-0.032	-0.049	-0.112	-0.0771
CC1(C)CCC(CN2CCN(c3ccc(C(=O)NS(=O)(=O)c4ccc(NCC5CCOCC5)c([N+](=O)[O-])c4)c(Oc4cnc5[nH]ccc5c4)c3)CC2)=C(c2ccc(Cl)cc2)C1 [Venetoclax] + C[C@@H](Nc1cc(F)cc(F)c1)c1cc(C(=O)N(C)C)cc2c(=O)cc(N3CCOCC3)oc12 [AZD8186] (first compound max 1 µM, 7x7, partner max 3 µM)	-0.0065	-0.0104	-0.0109	-0.0044	-0.0099	-0.0256	-0.0412	-0.0487	-0.221	-0.0264	-0.0521	-0.0654	-0.0197	-0.0192	-0.0516	0.0481	-0.0303	-0.0263	0.0136	-0.0336
COc1cccc(OCCCN)c1-c1cc(Nc2cnc(C#N)cn2)n[nH]1 [Prexasertib] + C=CCn1c(=O)c2cnc(Nc3ccc(N4CCN(C)CC4)cc3)nc2n1-c1cccc(C(C)(C)O)n1 [AZD1775] (first compound max 1 µM, partner max 1 µM)	0.047	0.0833	0.007	0.0378	0.025	0.108	0.0474	-0.0579	0.0657	0.0494	-0.0027	0.0061	0.122	0.0979	-0.0076	0.0178	0.0024	0.0659	0.0499	0.0439
CCN(CCO)CCCOc1ccc2c(Nc3cc(CC(=O)Nc4cccc(F)c4)[nH]n3)ncnc2c1 [AZD2811] + C[C@@H]1COCCN1C2=NC(=NC(=C2)C3(CC3)[S@](=N)(=O)C)C4=C5C=CNC5=NC=C4 [AZD6738] (first compound max 1 µM, 7x7, partner max 10 µM)	-0.0135	0.0323	-0.0065	-0.0611	-0.0478	-0.0885	-0.0313	-0.0734	-0.0806	0.0021	0.0096	-0.0849	0.0487	0.004	0.0279	-0.0434	-0.034	0.0474	-0.0211	-0.0931
CCN(CCO)CCCOc1ccc2c(Nc3cc(CC(=O)Nc4cccc(F)c4)[nH]n3)ncnc2c1 [AZD2811] + O=C(c1cc(Cc2n[nH]c(=O)c3ccccc23)ccc1F)N1CCN(C(=O)C2CC2)CC1 [Olaparib] (first compound max 1 µM, 7x7, partner max 10 µM)	0.0193	0.0109	0.0034	-0.0018	-0.0669	-0.0122	-0.0376	-0.0415	-0.0517	0.025	-0.063	-0.0184	0.0116	0.0181	-0.0196	0.0181	-0.0075	0.0345	-0.0236	0.0304
NC1(C(=O)N[C@@H](CCO)c2ccc(Cl)cc2)CCN(c2ncnc3[nH]ccc23)CC1 [Capivasertib] + Cn1cnc2c(F)c(Nc3ccc(Br)cc3Cl)c(C(=O)NOCCO)cc21 [Selumetinib] (first compound max 10 µM, 7x7, partner max 10 µM)	0.0678	-0.0383	-0.0293	0.0028	-0.034	-0.0414	-0.0367	-0.0045	0.0278	0.0366	-0.0396	-0.0113	0.0013	-0.0007	0.0384	-0.0343	0.0012	0.102	-0.104	0.0235
COc1nnc2ccc(N3CCC(c4ccc(OCCN5CCN(C)C(=O)[C@H]5C)cc4)CC3)nn12 [AZD5153] + CCN(CCO)CCCOc1ccc2c(Nc3cc(CC(=O)Nc4cccc(F)c4)[nH]n3)ncnc2c1 [AZD2811] (first compound max 1 µM, 7x7, partner max 1 µM)	-0.0109	-0.023	-0.0403	-0.0231	-0.0262	-0.102	-0.0853	-0.0263	-0.0087	-0.0764	-0.0479	-0.0469	-0.0072	-0.0372	-0.0785	0.0065	-0.0309	-0.0368	-0.109	-0.0409
